The source of these data is patent US10118929B2, “Nonanoic and decanoic acid derivatives and uses thereof” (SciFluor Life Sciences, Inc., priority 2016, dated 2018).

One experiment addresses αvβ8 (Homo sapiens (Human), UniProt P06756+P26012). Put plainly: αVβ8-LAP-TGF β1 integrin binding assay (integrin coupled beads, flow cytometry). As to conditions: for IC50: ligand LAP-TGF β1 20 nM, integrin 10 nM. As for the experimental part:
(§1) αVβ6/αVβ8-LAP-TGF β1 Binding Assay
(§2) Integrins αVβ6/αVβ8 coupled beads are treated with an αVβ6/αVβ8 ligand (e.g., LAP TGF-β1 (LAP1)), and the complex is incubated with a primary antibody (Ab), which can be labeled for detection (e.g., fluorescently labeled), and optionally with a secondary antibody, which can be labeled for detection (e.g., fluorescently labeled). Reaction between integrin coupled beads and the ligand was considered as the full reaction, and reaction without the ligand or a compound of the disclosure was considered as the blank reaction. The complex is analyzed, e.g., by either plate reader or Flow Cytometer, to determine modulation of binding between αVβ6/αVβ8 and the ligand (e.g., LAP-TGF β1) by the compounds of the present application.
All αv Integrins are known to bind to proteins with a RGD motif. Two RGD ligands were used in this study: Vitronectin (VN) as a ligand for αvβ3 and αvβ5 (Wayner et al., J. Cell Biol., 113 (4), 919-929, 1991), and LAP TGF-β1 (LAP1) as a ligand for αvβ6 and αvβ8 (Rognoni et al., Nat. Med., 20(4): 350-359, 2014). CWHM12 was used as a positive control for αvβ6 and αvβ8 (Henderson et al., Nat. Med. 19(12), 10.1038/nm.3282 2013), and Cilengitide as a positive control for αvβ3 and αvβ5 (Kumar et al., J. Pharmacol. Exp. Ther., 283, 843-853, 1997).
The integrin coupled Dyna beads were allowed to interact with respective ligands. The integrin-ligand complex was detected with either Primary/Secondary Antibody conjugated with Fluorescein Isothiocyanate (FITC). For αvβ3 and αvβ5, Vitronectin was used as a ligand and a primary antibody conjugated with FITC (Anti-VN-FITC Ab) was used to detect the interaction. For αvβ6 and αvβ8, LAP-TGF β1 was used as ligand and a primary antibody against LAP1 (Anti-LAP1 Ab) and a secondary antibody conjugated with FITC were used to detect the αv β6/αvβ8-LAP-TGF β1 complex. Fluorescence was measured by Flow Cytometry analysis.
5 mg of Dyna beads were weighed in a low protein binding microfuge (Eppendorf) tube (1.5 mL volume). The beads were re-suspended in 1 mL of Sodium Phosphate Buffer and vortexed at high speed for 30 seconds. The tube was then placed in a tube roller and tilt rotated for 10 min. After tilt rotation, the tube was placed on the Magna Spin and the beads were allowed to settle. The supernatant was discarded and the beads were washed three times. The beads were then re-suspended in 100 μL of Sodium Phosphate Buffer and 20 μL of washed beads were distributed into 5 low protein binding Eppendorf tubes (1 mg of beads in each tube). The beads were used for coupling integrins. […]
(§3) The tubes were taken out and subjected to a quick spin. […] The amount of protein bound to beads was quantified by measuring the sum of protein left in the Supernatant, W1, W2, W3 and W4 through the Micro BCA method. […]

The target of the next experiment is αvβ6 (Homo sapiens (Human), UniProt P06756+P18564). Put plainly: αVβ6-LAP-TGF β1 integrin binding assay (integrin coupled beads, flow cytometry). As to conditions: ligand LAP-TGF β1 10 nM; integrin 10 nM. As for the experimental part: as §1, §2
All αv Integrins are known to bind to proteins with a RGD motif. […]
The integrin coupled Dyna beads were allowed to interact with respective ligands. The integrin-ligand complex was detected with either Primary/Secondary Antibody conjugated with Fluorescein Isothiocyanate (FITC). […] Fluorescence was measured by Flow Cytometry analysis. […]
as §3
In general terms: In flow cytometry, cells or beads pass a laser one at a time.

Sequence of αvβ8 (P06756 31-992): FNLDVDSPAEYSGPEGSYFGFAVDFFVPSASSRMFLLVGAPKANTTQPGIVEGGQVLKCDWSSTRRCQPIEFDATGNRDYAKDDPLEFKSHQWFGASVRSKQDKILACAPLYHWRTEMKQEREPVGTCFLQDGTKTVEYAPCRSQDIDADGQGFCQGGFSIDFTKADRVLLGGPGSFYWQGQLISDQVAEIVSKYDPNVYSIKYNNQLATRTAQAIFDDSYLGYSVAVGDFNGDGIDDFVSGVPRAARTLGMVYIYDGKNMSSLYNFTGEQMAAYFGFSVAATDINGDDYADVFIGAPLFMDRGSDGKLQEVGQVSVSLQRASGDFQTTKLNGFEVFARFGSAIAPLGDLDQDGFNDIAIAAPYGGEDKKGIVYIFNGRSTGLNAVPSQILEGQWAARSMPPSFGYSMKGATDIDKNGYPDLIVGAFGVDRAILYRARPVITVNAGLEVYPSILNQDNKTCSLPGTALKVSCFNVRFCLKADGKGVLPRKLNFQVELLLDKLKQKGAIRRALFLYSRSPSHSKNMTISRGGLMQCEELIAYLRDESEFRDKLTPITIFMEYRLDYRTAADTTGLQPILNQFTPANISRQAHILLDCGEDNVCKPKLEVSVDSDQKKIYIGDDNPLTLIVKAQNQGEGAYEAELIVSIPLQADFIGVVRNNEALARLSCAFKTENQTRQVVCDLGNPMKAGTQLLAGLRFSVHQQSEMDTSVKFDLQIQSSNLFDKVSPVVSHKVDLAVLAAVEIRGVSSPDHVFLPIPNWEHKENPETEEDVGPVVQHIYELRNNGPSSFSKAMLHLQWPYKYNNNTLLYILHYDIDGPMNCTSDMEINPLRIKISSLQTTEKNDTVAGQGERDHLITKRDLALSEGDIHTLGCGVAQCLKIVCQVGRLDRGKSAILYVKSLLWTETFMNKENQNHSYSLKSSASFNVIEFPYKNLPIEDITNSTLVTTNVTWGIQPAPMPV
Sequence of αvβ8 (P26012 43-684): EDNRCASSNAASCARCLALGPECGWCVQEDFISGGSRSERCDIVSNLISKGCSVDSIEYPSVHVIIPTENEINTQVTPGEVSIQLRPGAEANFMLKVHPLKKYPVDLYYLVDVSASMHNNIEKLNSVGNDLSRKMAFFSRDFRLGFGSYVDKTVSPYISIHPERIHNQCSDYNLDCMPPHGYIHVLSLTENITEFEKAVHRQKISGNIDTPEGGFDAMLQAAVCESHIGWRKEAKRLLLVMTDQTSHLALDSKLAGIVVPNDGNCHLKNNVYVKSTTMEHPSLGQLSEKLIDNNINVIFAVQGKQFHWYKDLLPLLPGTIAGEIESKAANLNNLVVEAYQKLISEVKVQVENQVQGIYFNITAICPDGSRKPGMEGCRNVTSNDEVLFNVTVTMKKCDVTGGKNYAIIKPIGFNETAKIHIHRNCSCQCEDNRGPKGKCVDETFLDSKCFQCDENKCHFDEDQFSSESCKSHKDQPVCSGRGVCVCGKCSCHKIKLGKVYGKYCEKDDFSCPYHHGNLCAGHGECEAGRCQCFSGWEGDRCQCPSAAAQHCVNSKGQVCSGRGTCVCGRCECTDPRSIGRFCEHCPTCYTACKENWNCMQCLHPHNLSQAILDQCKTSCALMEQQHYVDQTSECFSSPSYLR
Sequence of αvβ6 (P06756 31-992): as the sequence (P06756 31-992) above
Sequence of αvβ6 (P18564 22-707): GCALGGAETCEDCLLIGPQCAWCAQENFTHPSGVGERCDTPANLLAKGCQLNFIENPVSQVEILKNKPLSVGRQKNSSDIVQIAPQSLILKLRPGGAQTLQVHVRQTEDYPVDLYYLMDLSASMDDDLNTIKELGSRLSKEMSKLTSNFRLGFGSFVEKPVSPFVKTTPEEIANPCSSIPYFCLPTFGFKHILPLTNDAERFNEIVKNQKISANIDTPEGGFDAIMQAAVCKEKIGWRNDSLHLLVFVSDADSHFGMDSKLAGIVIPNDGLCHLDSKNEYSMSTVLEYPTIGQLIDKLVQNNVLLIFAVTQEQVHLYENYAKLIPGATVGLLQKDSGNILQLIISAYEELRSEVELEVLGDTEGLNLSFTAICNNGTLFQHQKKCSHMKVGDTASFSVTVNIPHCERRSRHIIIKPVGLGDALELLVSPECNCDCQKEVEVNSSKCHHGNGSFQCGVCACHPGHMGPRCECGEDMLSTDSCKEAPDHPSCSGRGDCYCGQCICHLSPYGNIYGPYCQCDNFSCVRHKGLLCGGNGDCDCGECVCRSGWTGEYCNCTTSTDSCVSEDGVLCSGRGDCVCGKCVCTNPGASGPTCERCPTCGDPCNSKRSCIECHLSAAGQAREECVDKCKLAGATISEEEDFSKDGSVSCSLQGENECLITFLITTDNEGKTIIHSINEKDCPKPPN

Broadly, the IC50 is the concentration that gives 50% inhibition. A low value points to greater potency. For the compound `O=C(O)CC(c1cccc(C(F)(F)F)c1)N1CCN(CCCCNc2nc3ccccc3[nH]2)C1=O` (stereo not drawn) [Compound A1, 3-(3-(4-((1H-benzo[d]imidazol-2-yl)amino)butyl)-2-oxoimidazolidin-1-yl)-3-(3-(trifluoromethyl)phenyl)propanoic acid], the IC50 was 50.4 nM at αvβ8 and 376 nM at αvβ6. In addition, the αvβ8/αvβ6 at αvβ8 (ratio of αvβ8 IC50 to αvβ6 IC50) was 0.13.
Take `O=C(O)CC(c1cccc(C(F)(F)F)c1)N1CCN(CCCCNc2ccccn2)C1=O` (stereo not drawn) [Compound A10]: the IC50 on αvβ8 came to 232 nM; at αvβ6 it was 394 nM.
As to `O=C(O)CC(c1cccc(C(F)(F)F)c1)N1CCN(CCCCNC2=NCc3ccccc3C2)C1=O` (stereo not drawn) [Compound A8], at αvβ8, the IC50 amounted to 622 nM.
